Experimental data taken from patent US5658501A, “Substituted naphthopyrans” (Transitions Optical, Inc., priority 1995, dated 1997).

Experiments:
[1] = photochromic response rates on an optical bench (test squares); assay type: physicochemical; conditions: for ΔOD @ SATURATION: UV exposure continued for 20 minutes, same test squares; for ΔOD @ SATURATION / ΔOD/MIN SENSITIVITY: 75° F. (23.9° C.); for ΔOD/MIN SENSITIVITY: measured over first five seconds of UV exposure, expressed per minute, 1.5 x 10^-3 molal in BPA 2EO DMA / poly(ethyleneglycol) 600 dimethacrylate polymer; for Bleach Rate (T1/2): time for absorbance of activated form to reach one half the highest absorbance, room temperature (75° F., 23.9° C.), after removal of activating light
Protocol: Testing was done with the photochromic naphthopyrans of the Examples incorporated into polymeric samples by the following method. The quantity of naphthopyran calculated to yield a 1.5 time 10^-3 molal solution was added to a flask containing 50 grams of a monomer blend of 4 parts ethoxylated bisphenol A dimethacrylate (BPA 2EO DMA), 1 part poly(ethyleneglycol) 600 dimethacrylate, and 0.033 weight percent 2,2'-azobis (2-methyl propionitrile) (AIBN). The naphthopyran was dissolved into the monomer blend by stirring and gentle heating, if necessary. After a clear solution was obtained, it was poured into a flat sheet mold having the interior dimensions of 2.2 mm×6 inches (15.24 cm)×6 inches (15.24 cm). The mold was sealed and placed in a horizontal air flow, programmable oven set to increase the temperature from 40° C. to 95° C. over a 5 hour interval, hold the temperature at 95° C. for 3 hours and then lower it to 60° C. for at least 2 hours before the end of the curing cycle. After the mold was opened, the polymer sheet was cut using a diamond blade saw into 2 inch (5.1 centimeters) test squares.
The photochromic test squares prepared in Part A were tested for photochromic response rates on an optical bench. […] The bench was fitted with a 150 watt Xenon arc lamp, a remote controlled shutter, a copper sulfate bath acting as a heat sink for the arc lamp, a Schott WG-320 nm cut-off filter which removes short wavelength radiation; neutral density filter(s) and a sample holder in which the square to be tested was inserted. A collimated beam of light from a tungsten lamp was passed through the square at a small angle normal to the square. After passing through the square, the light from the tungsten lamp was directed through a photopic filter attached to a detector. The photopic filter passes wavelengths such that the detector mimics the response of the human eye. The output signals from the detector(s) were processed by a radiometer.
Change in optical density (ΔOD) was determined by inserting a test square in the bleached state into the sample holder, adjusting the transmittance scale to 100%, opening the shutter from the Xenon lamp to provide ultraviolet radiation to change the test square from the bleached state to an activated (i.e., darkened) state, measuring the transmittance in the activated state; and calculating the change in optical density according to the formula Δ OD=log(100/%Ta) where %Ta is the percent transmittance in the activated state and the logarithm is to the base 10.
(§1) The Δ OD/Min, which represents the sensitivity of the photochromic compound's response to UV light, was measured over the first five (5) seconds of UV exposure, then expressed on a per minute basis. The saturation optical density (OD) was taken under identical conditions as the Δ OD/Min, except UV exposure was continued for 20 minutes for the examples in Table 1. The lambda max reported in Table 1 is the wavelength in the visible spectrum at which the maximum absorption of the activated (colored) form of the photochromic compound in a diethylene glycol bis(allyl carbonate) composition occurs.

[2] = lambda max of the activated (colored) form in the visible spectrum; assay type: physicochemical; conditions: activated form in a diethylene glycol bis(allyl carbonate) composition
Protocol: as §1, with “occurs. The Bleach Rate (T 1/2) is the time interval in seconds for the absorbance of the activated form of the naphthopyran in the test squares to reach one half the highest absorbance at room temperature (75° F., 23.9° C.) after removal of the source of activating light.” for “occurs.”

| Compound | ΔOD @ SATURATION [1] | ΔOD/MIN SENSITIVITY [1] | Bleach Rate (T1/2) [1] | LAMBDA MAX (VISIBLE) [2] |
| --- | --- | --- | --- | --- |
| COc1ccc(C2(c3ccc(OC)cc3)C=Cc3c(-c4cccn4C)c(OC(C)=O)c4ccccc4c3O2)cc1 [Example 1, 2,2-bis(4-methoxyphenyl)-5-(N-methylpyrrol-2-yl)-6-acetoxy-2H-naphtho[1,2-b]pyran] | 0.25 | 0.16 ΔOD/MIN | 1.23 min | 513 nm |
| COc1ccc(C2(c3ccc(OC)cc3)C=Cc3c(C(O)(c4ccccc4)c4ccccc4)c(O)c4ccccc4c3O2)cc1 [Example 10, 2,2-bis (4-methoxyphenyl)-5-diphenylmethylol-6-hydroxy-2H-naphtho[1,2-b]pyran] | 0.32 | 0.05 ΔOD/MIN | > 13.3 min | 482 nm |
| CC(=O)Oc1c(Sc2ccccc2)c2c(c3ccccc13)OC1(C=C2)C2CC3CC(C2)CC1C3 (centres unmarked) [Example 8, 2,2'-spiroadamantylene-5-phenylthio-6-acetoxy-2H-naphtho[1,2-b]pyran] | 0.04 | 0.10 ΔOD/MIN | 1.13 min | 459 nm |
| COc1c(C)c2c(c3ccccc13)OC1(C=C2)C2CC3CC(C2)CC1C3 (centres unmarked) [Example 9, 2,2'-spiroadamantylene-5-methyl-6-methoxy-2H-naphtho[1,2-b]pyran] | 0.17 | 0.12 ΔOD/MIN | 2.55 min | 462 nm |
| COc1ccc(C2(c3ccc(OC)cc3)C=Cc3c(C(O)(c4ccccc4)c4ccccc4)c(OC)c4ccccc4c3O2)cc1 [Example 11, 2,2-bis(4-methoxyphenyl)-5-diphenylmethylol-6-methoxy-[2H]-naphtho[1,2-b]pyran] | 0.19 | 0.10 ΔOD/MIN | 1.42 min | 467 nm |
| COc1ccc(C2(c3ccc(OC)cc3)C=Cc3c(Sc4ccccc4)c(O)c4ccccc4c3O2)cc1 [Example 3, 2,2-bis(4-methoxyphenyl)-5-phenylthio-6-hydroxy-2H-naphtho[1,2-b]pyran] | 1.76 | 0.34 ΔOD/MIN | > 10 min | 516 nm |
| Oc1c(Sc2ccccc2)c2c(c3ccccc13)OC1(C=C2)C2CC3CC(C2)CC1C3 (centres unmarked) [Example 7, 2,2'-spiroadamantylene-5-phenylthio-6-hydroxy-2H-naphtho[1,2-b]pyran] | 0.47 | 0.15 ΔOD/MIN | 3.08 min | 462 nm |
| COc1ccc(C2(c3ccc(OC)cc3)C=Cc3c(-c4ccc(OC)cc4OC)c(OC(C)=O)c4ccccc4c3O2)cc1 [Example 2, 2,2-bis(4-methoxyphenyl)-5-(2,4-dimethoxyphenyl)-6-acetoxy-2H-naphtho[1,2-b]pyran] | 0.55 | 0.15 ΔOD/MIN | 4.13 min | 511 nm |
| COc1ccc(C2(c3ccc(OC)cc3)C=Cc3c(Cl)c(OC(C)=O)c4ccccc4c3O2)cc1 [Example 5, 2,2-bis(4-methoxyphenyl)-5-chloro-6-acetoxy-2H-naphtho[1,2-b]pyran] | 0.07 | 0.08 ΔOD/MIN | 0.9 min | 462 nm |
| COc1ccc(C2(c3ccc(OC)cc3)C=Cc3c(Sc4ccccc4)c(OC(C)=O)c4ccccc4c3O2)cc1 [Example 4, 2,2-bis(4-methoxyphenyl)-5-phenylthio-6-acetoxy-2H-naphtho[1,2-b]pyran] | 0.23 | 0.22 ΔOD/MIN | 0.7 min | 516 nm |
| COc1ccc(C2(c3ccc(OC)cc3)C=Cc3c(C)c(OC(C)=O)c4ccccc4c3O2)cc1 [Example 6, 2,2-bis(4-methoxyphenyl)-5-methyl-6-acetoxy-2H-naphtho[1,2-b]pyran] | 0.37 | 0.14 ΔOD/MIN | 2 min | 506 nm |
